Experimental data from patent publication US20210030735A1 (Tesaro, Inc., priority 2018, published 2021).
Converted amounts (≈) assume the structure as drawn. Read-outs that look alike come from different tables or passages of the source.

Tests used:
beagle dogs = conditions: dog, in vivo, 1 month
[1] = test system: recurrent solid tumors that exhibit a BRCAness mutational signature; conditions: oral niraparib in combination with TSR-042, patients between 6 months and 18 years
juvenile rats = conditions: rat, in vivo, 1 month
[2] = test system: platinum-sensitive recurrent epithelial ovarian, fallopian tube, or primary peritoneal cancer; conditions: for PFS Median: niraparib 300 mg QD; for HR, CFI / HR, TFST: niraparib versus placebo
Description: All patients had received at least two prior platinum-containing regimens and were in response (complete or partial) to their most recent platinum-based regimen. Eligible patients were assigned to one of two cohorts based on the results of a germline BRCA mutation test. […] Randomization occurred within 8 weeks of the last dose of the most recent platinum-containing regimen. […] Clinic visits occurred each cycle (4 weeks ±3 days). […] Prior to unblinding of the study, tumors of patients randomized to the non-gBRCAmut cohort were tested for the presence of homologous recombination deficiency (HRD) using the Myriad myChoice® HRD test, which evaluates three independent biomarkers of tumor genome instability: loss of heterozygosity, telomeric allelic imbalance, and large-scale state transitions. Tumors with homologous recombination deficiencies and those with somatic BRCA mutations were defined as HRD positive (HRDpos). The primary efficacy analysis for PFS was prospectively defined and assessed for the gBRCAmut cohort. The primary efficacy analysis for PFS was prospectively defined and assessed for the non-gBRCAmut cohort with a hierarchical testing schema. In the first step, PFS was assessed in the group of patients with HRDpos tumors and if significant, PFS was assessed in the overall non-gBRCAmut cohort. Secondary efficacy endpoints included chemotherapy-free interval (CFI), time to first subsequent therapy (TFST), PFS after the first subsequent therapy (PFS2), time to second subsequent therapy (TSST) and OS (overall survival).

in vivo = conditions: tumor, 50 mg/kg
[3] = drug substance
Description: The particle size analyzer can determine particle size using low-angle laser light scattering and calculates results in % volume based on equivalent spheres. Volume distributions for the D10, D50, D90, D4,3, and D3,2 can be determined. The suspension is added to the tank until the obscuration is in range, targeting a 10% obscuration. Measurements are taken once the obscuration remains consistent.
These batches were divided into sub-lots at various time intervals and each sub-lot was analyzed for content uniformity. The batches used are described in Table 12.

## NC(=O)c1cccc2cn(-c3ccc([C@@H]4CCCNC4)cc3)nc12 [Niraparib, niraparib]
Beagle dogs
  no-observed-adverse-effect-level: 6 mg/kg/day
[1]
  treatment of pediatric cancer patients, result of the study: can be used successfully
Juvenile rats
  no-observed-adverse-effect-level: 10 mg/kg/day
physchem
  pKa: 9.95
physchem; aqueous media across the physiological pH range, aqueous buffer
  solubility: 700 to 1100 µg/mL (≈ 2180 to 3430 µM)
[2]; HRDpos group of the non-gBRCAmut cohort, N = 106
  PFS Median: 12.9 months
[2]; gBRCAmut cohort
  Median CFI (chemotherapy-free interval): 22.8 months
  Median TFST (time to first subsequent therapy): 21.0 months
  HR, CFI: 0.26
  HR, TFST: 0.31
[2]; gBRCAmut cohort, N = 138
  PFS Median: 21.0 months
[2]; non-gBRCAmut cohort
  Median CFI (chemotherapy-free interval): 12.7 months
  Median TFST (time to first subsequent therapy): 11.8 months
  HR, CFI: 0.50
  HR, TFST: 0.55
[2]; overall non-gBRCAmut cohort, N = 234
  PFS Median: 9.3 months
Tumor models; 50 mg/kg, daily dosing
  tumor regression: tumor regression
Tumor models; dose of 75 mg/kg, same model
  tumor regression: did not result in tumor regression
In vivo
  concentration at 6 h: 4570 ng/mL

## Cc1ccc(S(=O)(=O)O)cc1.NC(=O)c1cccc2cn(-c3ccc([C@@H]4CCCNC4)cc3)nc12 [niraparib tosylate monohydrate, 2-{4-[(3S)-piperidin-3-yl]phenyl}-2H-indazole 7-carboxamide 4-methylbenzenesulfonate hydrate (1:1:1)]
[3]
  bulk density: 0.34-0.45 g/cc
  tapped density: 0.53-0.66 g/cc
